This note sets out measurements from patent EP0126043A1, “Carbohydrate derivatives and compositions thereof for therapeutic or diagnostic use” (priority 1983, dated 1984).

≈ marks a conversion by molar mass, not a printed value.

The subject of experiment [1] is S. pneumoniae. The experiment in a line: Induction/increase of pneumococcal adherence by coating epithelium cells with glycoconjugate. In kind it is cell-based. As to conditions: for Increase of adherence % of control Average: Conc. 200 µg/ml, epithelium cells preincubated with glycoconjugate, washed and used for adherence testing; for effect of coating of pharyngeal epithelium cells on adherence (result in words): coating with 200 µg/ml. The method, then: (§1) Two strains of S. Pneumoniae, EF3114 and EF 10276 (both of the capsular type 6A isolated from the nasopharynx of patients having inflammation in the middle ear) were maintained in a lyophilized state. For adherence test the lyophiles were transferred to blood agar plates and cultivated over night, were then allowed to grow for18 hours in a synthetic medium (Ref. 1) supplemented with 2 g/l ascorbic acid and such as described in (Ref. 2). The bacteria were harvested by centrifugation and suspended in saline solution (Ref. 3).
Binding to humane nasopharyngeal epithelium cells was investigated in vitro as previously described (Ref. 3). Bacterial cells (10^9/ml) and pharyngeal epithelium cells from a healthy male donor (10^4/ml) were mixed, centrifugated at 1500xg for 10 minutes and incubated at 37°C for 30 minutes. After washing twice in 2.5 ml salines for separating epithelium cells from non-adhering bacteria the number of bacteria adhering at 40 epithelium cells were counted and the average number per cell was determined.
Association of receptor active glycolipids with epithelium cells or erythrocytes can increase binding to epithelium cells already containing the receptor or induce binding of cells which have not previously contained receptor. Rabbit erythrocytes (100 ul of a 5 % suspension) were mixed with a neolactotetraosyl ceramide, sialylneolactotetra- osyleeramide or globotetraosylceramide (500 ul of . suspensions of 200 ug/ml) and incubated at 37° for 3 hours with rotation (Ref. 16). After elimination of unbound glycolipid by repeated washing the erythrocyte concentration was again adjusted to 5 % and used for haemagglutination. Parallel to the tests regarding inhibition of adherence the humane nasopharyngeal epithelium cells were pretreated with decreasing concentrations of glycolipid, incubated for 2 hours at 37°C, washed and used for testing of adherence.

Experiment [2] concerns S. pneumoniae. The experiment in a line: Inhibition of adherence of pneumococci to human pharyngeal epithelium cells (bacteria preincubated with free receptor). In kind it is cell-based. As to conditions: for Inhibition of adherence % of control Average: Conc. 200 µg/ml, bacteria preincubated with the glycoconjugate before adding epithelium cells, adhesion in percent of saline control; for activity at 100 µg/mL / activity at 1000 µg/mL / activity at 5000 µg/mL / activity at 10000 µg/mL: read-out: Adherence % of control Average; for IC50: read-out: concentration for 50% inhibition of adherence; for inhibition of adherence (result in words): pretreatment of the pneumococci with the substance. On the procedure:
as §1
Binding to humane nasopharyngeal epithelium cells was investigated in vitro as previously described (Ref. 3). Bacterial cells (10^9/ml) and pharyngeal epithelium cells from a healthy donor (10^4/ml) were mixed, centrifugated at 1500xg for 10 minutes and incubated at 37°C for 30 minutes. After washing twice in 2.5 ml salines for separating epithelium cells from non-adhering bacteria the number of bacteria adhering at 40 epithelium cells were counted and the average number per cell was determined.
For inhibition of adhesion the bacterium concentration giving an average adhesion value of 20-300 bacteria per cell was determined. This inoculate was then preincubated with dilutions of the solutions of potential receptor activity for 15 minutes at 37°C.
Epithelium cells were added and adhesion testing was carried out as described. The adhesion was given in percent of the saline as a control sample.

With “globotetraosylceramide [Substance 4, reference compound]”, the “Increase of adherence % of control Average” value in the experiment with S. pneumoniae [1] is reported as 100 % of control.

As for globotetraosylceramide, the “effect of coating of pharyngeal epithelium cells on adherence (result in words)” value (from here on “effect of coating … (result in words)”) with S. pneumoniae [1] was “no effect”.

On to “neolactotetraosyl ceramide [Substance 2]”, for which the “Inhibition of adherence % of control Average” value in the experiment on S. pneumoniae [2] is reported as 59 % of control. In addition, the “adherence, % of the saline as a control” value in the experiment on S. pneumoniae [2] (pretreatment of the pneumococci, at 200 µg/ml, 15 min) was 59%. In addition, in the experiment on S. pneumoniae [1], the “Increase of adherence % of control Average” value is 190 % of control and the “effect of coating … (result in words)” value is recorded as “increased adherence”.

Turning to `CC(=O)N[C@H]1[C@H](O[C@H]2[C@@H](O)[C@@H](CO)O[C@@H](O[C@H]3[C@H](O)[C@@H](O)C(O)O[C@@H]3CO)[C@@H]2O)O[C@H](CO)[C@@H](O)[C@@H]1O[C@@H]1O[C@H](CO)[C@H](O)[C@H](O)[C@H]1O` (stereo partly shown) [Substance 6, Lactotetraose], in the experiment with S. pneumoniae [2] (Streptococcus pneumoniae), the activity at 100 µg/mL is 68%, the activity at 1000 µg/mL turned out to be 25%, the activity at 5000 µg/mL came out at 4% and the IC50 was about 400 µg/mL (≈ 565 µM).

For the compound `CO[C@@H]1O[C@H](CO)[C@H](O)[C@H](O[C@@H]2O[C@H](CO)[C@@H](O[C@@H]3O[C@H](CO)[C@H](O)[C@H](O)[C@H]3O)[C@H](O)[C@H]2NC(C)=O)[C@H]1O` [Substance 15, Methyl 3-0-2-acetamido-2-deoxy-4-0-(β-D-galactopyranosyl)--β-D-glycopyranosyl-β-D-galactopyranoside], in the experiment with S. pneumoniae [2] (Streptococcus pneumoniae), the activity at 100 µg/mL worked out at 60%, the activity at 1000 µg/mL is 45%, the activity at 5000 µg/mL was 11% and the activity at 10000 µg/mL worked out at 2%.

For `CCO[C@@H]1O[C@H](CO)[C@@H](O[C@@H]2O[C@H](CO)[C@H](O)[C@H](O)[C@H]2O)[C@H](O)[C@H]1O` [Substance 14, Ethyl 4-0-β-D-galactopyranosyl-β-D-glycopyranoside], in the experiment with S. pneumoniae [2] (Streptococcus pneumoniae), the activity at 1000 µg/mL stood at 85%, the activity at 5000 µg/mL was 78% and the activity at 10000 µg/mL turned out to be 63%.

As for `CO[C@H]1O[C@H](CO)[C@@H](O[C@@H]2O[C@H](CO)[C@H](O)[C@H](O)[C@H]2O)[C@H](O)[C@H]1NC(C)=O` [Substance 8, Methyl 2-acetamido-2-deoxy-4-O-(β-D-galactopyranosvl)-α--D-glycopyranoside], in the experiment on S. pneumoniae [2] (Streptococcus pneumoniae), the activity at 1000 µg/mL stood at 96%, the activity at 5000 µg/mL came to 98% and the activity at 10000 µg/mL worked out at 129%. The “inhibition of adherence (result in words)” value in the experiment on S. pneumoniae [2] was “inactive”.

On to `CO[C@@H]1O[C@H](CO)[C@@H](O[C@@H]2O[C@H](CO)[C@H](O)[C@H](O[C@@H]3O[C@H](CO)[C@@H](O[C@@H]4O[C@H](CO)[C@H](O)[C@H](O)[C@H]4O)[C@H](O)[C@H]3NC(C)=O)[C@H]2O)[C@H](O)[C@H]1O` [Substance 16, Methyl 4-0-{3-0-[2-acetamido-2-deoxy-4-0-(D-galactopy-ranasyl)-β-D-glucopyranosyl]-β-D-galactopyranosyl}-β-D-glucopyranoside], for which, in the experiment on S. pneumoniae [2] (Streptococcus pneumoniae), the activity at 100 µg/mL amounted to 104%, the activity at 1000 µg/mL came to 11%, the activity at 5000 µg/mL came out at 1% and the activity at 10000 µg/mL was 4%.

For the compound `CO[C@@H]1O[C@H](CO)[C@H](O[C@@H]2O[C@H](CO)[C@@H](O)[C@H](O)[C@H]2NC(C)=O)[C@H](O)[C@H]1O` [Substance 11, Methyl 4-0-(2-acetamido-2-deoxy-β-D-glycopyranosyl)-β-D--galactopyranoside], in the experiment on S. pneumoniae [2] (Streptococcus pneumoniae), the activity at 100 µg/mL was 65%, the activity at 1000 µg/mL stood at 72%, the activity at 5000 µg/mL came to 73% and the activity at 10000 µg/mL is 75%. Moreover, the “inhibition of adherence (result in words)” value with S. pneumoniae [2] is “inactive”.

“N-acetylneuraminosyl neolactotetraosyl ceramide [Substance 3, reference compound]”: in the experiment on S. pneumoniae [2], the “Inhibition of adherence % of control Average” value is 100 % of control and the “inhibition of adherence (result in words)” value is “no effect”. For the same compound, in the experiment on S. pneumoniae [1], the “Increase of adherence % of control Average” value is recorded as 94 % of control and the “effect of coating … (result in words)” value is listed as “no effect”.

In the case of `CO[C@@H]1O[C@H](CO)[C@H](O)[C@H](O[C@@H]2O[C@H](CO)[C@@H](O)[C@H](O)[C@H]2NC(C)=O)[C@H]1O` [Substance 12, Methyl 3-0-(2-acetamido-2-deoxy-β-D-glycopyranosyl)-β-D--galactopyranoside], in the experiment with S. pneumoniae [2] (Streptococcus pneumoniae), the activity at 100 µg/mL was 66%, the activity at 1000 µg/mL worked out at 105%, the activity at 5000 µg/mL amounted to 15% and the activity at 10000 µg/mL came to 4%.

Regarding Galβ1 → 3 GlcNAc-β1-O-Bz [Substance 17], the “Adherence % of control Average” value with S. pneumoniae [2] (Conc. 0.1 mg/ml) is reported as 88 % of control; in the experiment with S. pneumoniae [2] (Conc. 1 mg/ml) it was 86 % of control; in the experiment with S. pneumoniae [2] (Conc. 5 mg/ml), 51 % of control; in the experiment with S. pneumoniae [2] (Conc. 10 mg/ml), 8 % of control.

As for `CCO[C@@H]1O[C@H](CO)[C@@H](O[C@@H]2O[C@H](CO)[C@H](O)[C@H](O)[C@H]2O)[C@H](O)[C@H]1NC(C)=O` [Substance 13, Galβ1→4GlcNAcβ1-O-Et], in the experiment with S. pneumoniae [2] (Streptococcus pneumoniae), the activity at 1000 µg/mL was 67%, the activity at 5000 µg/mL is 38% and the activity at 10000 µg/mL is 31%.

With `CC(=O)N[C@H]1[C@H](O[C@H]2[C@@H](O)[C@@H](CO)O[C@@H](O[C@H]3[C@H](O)[C@@H](O)C(O)O[C@@H]3CO)[C@@H]2O)O[C@H](CO)[C@@H](O[C@@H]2O[C@H](CO)[C@H](O)[C@H](O)[C@H]2O)[C@@H]1O` (stereo partly shown) [Substance 5, Neolactotetraose], in the experiment with S. pneumoniae [2] (Streptococcus pneumoniae), the activity at 100 µg/mL was determined as 52%, the activity at 1000 µg/mL was determined as 28%, the activity at 5000 µg/mL came out at 0% and the activity at 10000 µg/mL is 1%. Also, the IC50 in the experiment with S. pneumoniae [2] (Streptococcus pneumoniae) is about 400 µg/mL (≈ 565 µM).

Turning to `CO[C@@H]1O[C@H](CO)[C@@H](O[C@@H]2O[C@H](CO)[C@H](O)[C@H](O)[C@H]2O)[C@H](O)[C@H]1NC(C)=O` [Substance 9, Methyl 2-acetamido-2-deoxy-4-O-(β-D-galactopyranosyl)-β--D-glycopyranoside], in the experiment on S. pneumoniae [2] (Streptococcus pneumoniae), the activity at 1000 µg/mL is 96%, the activity at 5000 µg/mL was determined as 45% and the activity at 10000 µg/mL was 29%. The minimal effective concentration in the experiment with S. pneumoniae [2] (Streptococcus pneumoniae, read-out: concentration at which adherence was inhibited) was about 5000 µg/mL.

As to `CC(=O)N[C@H]1C(O)O[C@H](CO)[C@@H](O[C@@H]2O[C@H](CO)[C@H](O)[C@H](O)[C@H]2O)[C@@H]1O` (stereo partly shown) [Substance 10, N-acetyllactose amine, reference compound], in the experiment on S. pneumoniae [2] (Streptococcus pneumoniae), the activity at 1000 µg/mL was determined as 95%, the activity at 5000 µg/mL was found to be 144% and the activity at 10000 µg/mL was found to be 127%. Besides, the “inhibition of adherence (result in words)” value in the experiment on S. pneumoniae [2] is “inactive”.
